*1 amine or outer side, *2 acyl side, *3 side chain or, on linkers, in order; H or OH if unused. Where a SMILES comes first, the peptide text is derived from it. Bridges are numbered along the chain shown (N, C = ends). [ ]: non-standard residue; d: D form. X1 = O=C([C@@H]1CC(n2cc([C]34[CH]5[CH]6[CH]7[CH]3[Fe]6754389%10[CH]4[CH]3[CH]8[CH]9[CH]4%10)nn2)CN1[*:1])[*:2]
Key:
CEM-GFP cells = assay: WST-1 cytotoxicity assay; type: cell-based; conditions: up to concentrations of 125 μM
Protocol: The cytotoxicity was determined on CEM-GFP cells via a colorimetric assay to measure the relative proliferation rates of cells in culture. […] After 18 h of incubation, the media containing compounds were discarded and treated with 10% (v/v) WST-1 (a tetrazolium salt) in fresh media for one hour at 37 °C. The cell viability was determined by measuring the absorbance at 450 nm using a Tecan Infinite F50 plate reader.
Figure S1. […] Data represent means and standard deviations of three independent experiments performed in triplicate.

[1] = molecular target: HxBc2 gp120 V255I/S143N monomer (Human immunodeficiency virus type 1 group M subtype B, UniProt P04578, S143N/V255I); assay: Isothermal titration calorimetry, V255I/S143N gp120; type: binding, HIV-1; conditions: 25 °C
Protocol: (§1) Heats were obtained at 25 °C by injection of 8 μL of PT (100 μM) into a sample cell of a VP-ITC containing 1.4 mL recombinant HxBc2 gp120 (6–8 μM). Solid lines represent fits to a single site binding model.
(§2) The resulting heat changes upon injection were integrated over a time range of 240 s, and the obtained values were fit to a standard single site-binding model using Origin® software.

[2] = molecular target: HIV-1 HxBc2 gp120 V255I monomer (Human immunodeficiency virus type 1 group M subtype B, UniProt P04578, V255I); assay: Surface plasmon resonance, V255I gp120; type: binding
Protocol: (§3) SPR experiments were performed on a Biacore 3000 biosensor (Global Cytiva Lifesciences) at 25 °C using PBS-P (10 mM Phosphate, 150 mM NaCl, pH 7.4, 0.005% P-20) as the running buffer. A CM5 sensor chip was docked and derivatized by amine coupling with HIV-1HxBc2 WT and mutant gp120 subunits using freshly prepared 1:1 50 mM NHS (N-hydroxysuccinamide):200 mM EDC (1-ethyl-3-(3-(dimethylamino)propyl) carbodiimide). […] The equilibrium dissociation constant was calculated as KD = k−1/k1.
(§4) Rate constants k1 and k-1 are defined as they are in the 1:1 binding model, while k2 and k-2 are first order rate constants describing isomerization and de-isomerization, respectively. Equations describing the time course of the interactions can be found in Additional file 1: Method S1. For the fit, it was assumed that the states Env·PT and Env·PT^∗ had the same SPR signal. Rate constants were determined using a least-squares gradient-step algorithm coded in Visual Basic and implemented through Microsoft Excel.

[3] = molecular target: HxBc2 gp120 V255I monomer (Human immunodeficiency virus type 1 group M subtype B, UniProt P04578, V255I); assay: Isothermal titration calorimetry, V255I gp120; type: binding, HIV-1
Protocol: as §1, §2

[4] = molecular target: HIV-1 HxBc2 gp120 WT monomer (Human immunodeficiency virus type 1 group M subtype B, UniProt P04578); assay: Surface plasmon resonance, WT gp120; type: binding
Protocol: as §3, §4

[5] = tested on: S143N NL4-3 Env on HEK293T cells; assay: gp120 shedding analysis by flow cytometry, S143N Env; type: cell-based, HIV-1; conditions: S143N mutant Env trimer; 50-fold higher than the EC50 value for wild type Env
Protocol: (§5) The measurements (mean fluorescence intensity) were obtained by flow cytometry using an anti-Env IgG (mAb 35O22) that recognizes a quaternary epitope at the gp120/gp41 interface.
(§6) The gp120 shedding assay was performed as described previously. Briefly, three million HEK293T cells per flask were transiently transfected with 4 μg of HIV-1 NL4-3 Env plasmid and transfection reagent FuGENE 6 (Promega). 5 mM EDTA in DPBS was used to detach cells at 24 h and cells were reseeded in 96-well plates with 50,000 cells per well. […] Cells were washed with fresh medium, detached with 5 mM EDTA, and then washed and resuspended in FC buffer (1% BSA and 1 mM EDTA in 10 mM PBS pH 7.4). 2% paraformaldehyde in DPBS was used to fix the cells for 15 min at room temperature. Cells were then washed and resuspended in the FC buffer three times. […] Cell counts and Env staining were assessed in counted cells on a Guava EasyCyte 5HT flow cytometry system (Millipore). Analyzed cells were subjected to forward/side scatter gating based on untreated control populations of identical transfection, and median fluorescence values were obtained using Guava InCyte 3.2 software. Data were analyzed in GraphPad Prism 9 using nonlinear regression fit with dose response-inhibitor equation (4 parameters).

HxBc2 gp120 WT monomer = HxBc2 gp120 WT monomer (Human immunodeficiency virus type 1 group M subtype B, UniProt P04578); assay: Isothermal titration calorimetry, WT gp120; type: binding, HIV-1; conditions: 25 °C
Protocol: as §1, §2

[6] = tested on: wild type NL4-3 Env on HEK293T cells; assay: gp120 shedding analysis by flow cytometry, wild type Env; type: cell-based, HIV-1; conditions: WT NL4-3 Env on HEK293T cells; 37 °C, 2 h; mAb 35O22 flow cytometry; read-out: EC50 of induced gp120 shedding (intact Env trimers remaining)
Protocol: as §5, §6

[7] = molecular target: HIV-1 HxBc2 gp120 V255I/S143N monomer (Human immunodeficiency virus type 1 group M subtype B, UniProt P04578, S143N/V255I); assay: Surface plasmon resonance, V255I/S143N gp120; type: binding
Protocol: as §3, §4

[8] = tested on: V255I NL4-3 Env on HEK293T cells; assay: gp120 shedding analysis by flow cytometry, V255I Env; type: cell-based, HIV-1
Protocol: as §5, §6

BaL.01 viruses = tested on: BaL.01 viruses; design: method as in PMID 24330857, PMID 26331669; conditions: ref [16], [21], read-out: EC50 of induced gp120 shedding; cited from earlier work
[9] = tested on: V255I/S143N NL4-3 Env on HEK293T cells; assay: gp120 shedding analysis by flow cytometry, V255I/S143N Env; type: cell-based, HIV-1
Protocol: as §5, §6

Structure (SMILES): CC[C@H](C)[C@@H]1NC(=O)[C@H](CC(N)=O)NC(=O)[C@@H](N)CC(=O)NCCCC[C@@H](C(N)=O)NC(=O)[C@H](Cc2c[nH]c3ccccc23)NC(=O)[C@@H]2CC(n3cc([C]45[CH]6[CH]7[CH]8[CH]4[Fe]786549%10%11[CH]5[CH]4[CH]9[CH]%10[CH]5%11)nn3)CN2C1=O (some centres unmarked) [AAR029b] (H-DNI[X1]WK-NH2; lactam 1-6 (inferred))
- cytotoxicity (CEM-GFP cells): minimal
- ITC binding stoichiometry n [1]: 1.1 ± 0.04
- ITC −TΔS [1]: 4.18 ± 3.81 kJ/mol
- SPR k1 ([2]; V255I gp120, PT association): 5.4 (M^−1 s^−1) × 10^–5
- SPR k-1 ([2]; V255I gp120, PT dissociation): 130 (s^−1) × 10^3
- decrease in binding affinity (KD) by the V255I mutation, SPR ([2]; V255I vs WT gp120): 31 fold
- ITC binding stoichiometry n ([3]; V255I gp120 (HxBc2), 25 °C): 1.0 ± 0.01
- ITC −TΔS ([3]; V255I gp120 (HxBc2), 25 °C): 1.8 ± 1.26 kJ/mol
- absolute impact of V255I substitution on enthalpy (ΔH) and entropy (TΔS) ([3]; mutant vs wild type gp120, ITC): 14.6 to 18.8 kJ/mol
- SPR k1 ([4]; PT association): 11 (M^−1 s^−1) × 10^–5
- SPR k-1 ([4]; PT dissociation): 8.3 (s^−1) × 10^3
- disruption of Env trimer (shedding) at high concentration [5]: only minimal disruption
- ITC binding stoichiometry n (HxBc2 gp120 WT monomer): 1.1 ± 0.04
- ITC −TΔS (HxBc2 gp120 WT monomer): 18.8 ± 3.77 kJ/mol
- EC50 [6]: 0.249 ± 0.075 µM
- SPR k1 ([7]; PT association): 3.6 (M^−1 s^−1) × 10^–5
- SPR k-1 ([7]; PT dissociation): 110 (s^−1) × 10^3
- decrease in sensitivity to ligand-induced shedding compared to wild type Env [8]: greater than tenfold
- EC50 (BaL.01 viruses): 0.315 µM
- decrease in sensitivity to ligand-induced shedding compared to wild type Env [9]: greater than tenfold
